Results published in US7452688B2, “Transformed cell with enhanced sensitivity to antifungal compound and use thereof” (Sumitomo Chemical Company, Limited, priority 2002, dated 2008).

Test system: transformed budding yeast TM182-BcOS1-I365S
Experiment: Antifungal compound sensitivity test of transformed budding yeast TM182-BcOS1-I365S (Example 6)
Assay type: cell-based, Saccharomyces cerevisiae
Conditions: 30° C. 67 hours; for Degree of growth of budding yeast (%) TM182-BcOS1-I365S Gal-Ura-Leu medium: control medium
Experimental: The transformed budding yeast TM182-BcOS1-I365S prepared in Example 5 was cultured at 30° C. for 18 hours in a Glu-Ura-Leu medium. The absorbance at 600 nm of a cell suspension of the grown transformed budding yeast was measured, and a cell suspension diluted with sterilized distilled water to the absorbance of 0.1 was prepared. Further, a cell suspension in which the aforementioned cell suspension of the transformed budding yeast TM182-BcOS1-I365S was diluted 200-fold with a Glu-Ura-Leu medium and, as a control, a cell suspension in which the cell suspension was diluted 200-fold with a Gal-Ura-Leu medium were prepared. A solution in which each of Compound (1) to (3) was dissolved in dimethylsulfoxide (DMSO) to the concentration of 60 ppm, a solution in which each of Compounds (4) and (5) was dissolved in dimethylsulfoxide (DMSO) to the concentration of 2000 ppm, and a solution in which each of Compounds (6) and (7) was dissolved in dimethylsulfoxide (DMSO) to the concentration of 20 ppm were prepared, and two microplates were prepared in which each 2.0 μL per well of the Compound solution and DMSO as a control were dispensed into two wells. In one microplate among them, each 200 μL of cell suspensions of the transformed budding yeast TM182-BcOS1-I365S which had been prepared by dilution with a Glu-Ura-Leu medium as described above was dispensed, and cultured by allowing to stand at 30° C. for 67 hours. In another microplate, as a control, each 200 μL of cell suspensions of the transformed budding yeast TM182-BcOS1-I 365S which had been prepared by dilution with a Gal-Ura-Leu medium was dispensed, and cultured by allowing to stand at 30° C. for 67 hours. After culturing, the absorbance at 600 nm of each well was measured with a microplate reader.
Degrees of growths of both of the transformed budding yeasts cultured under the presence of Compounds (1) to (7) and budding yeast as a control therefor are shown in Table 2. Degrees of growths of both of the transformed budding yeasts and budding yeast as a control are expressed by a relative value in percentage, letting the absorbance at 600 nm at the concentration of the Compound of 0 ppm to be 100. It was confirmed that an inhibiting degree of growth of the transformed budding yeast TM182-BcOS1-I 365S by each test substance was grater than an inhibiting degree of growth of the transformed budding yeast AH22-BcOS1-I 365S by each test substance, and the transformed budding yeast TM182-BcOS1-I365S was a transformed cell with the enhanced sensitivity to an antifungal compound as compared with the transformed budding yeast AH22-BcOS1-I365S.

Row | Compound | Degree of growth of budding yeast (%) TM182-BcOS1-I365S Gal-Ura-Leu medium (final concentration 20 ppm) [%] | Degree of growth of budding yeast (%) TM182-BcOS1-I365S Glu-Ura-Leu medium (final concentration 20 ppm) [%] | Degree of growth of budding yeast (%) TM182-BcOS1-I365S Gal-Ura-Leu medium (final concentration 0.2 ppm) [%] | Degree of growth of budding yeast (%) TM182-BcOS1-I365S Glu-Ura-Leu medium (final concentration 0.2 ppm) [%]
1 | O=[N+]([O-])c1c(Cl)c(Cl)c(Cl)c(Cl)c1Cl [Compound (4), Quintozene] | 101 | 41 | – | –
2 | COP(=S)(OC)Oc1c(Cl)cc(C)cc1Cl [Compound (5), Tolclofos-methyl] | 76 | 13 | – | –
3 | N#Cc1c[nH]cc1-c1cccc2c1OC(F)(F)O2 [Compound (6), Fludioxonil] | – | – | 93 | 7
4 | N#Cc1c[nH]cc1-c1cccc(Cl)c1Cl [Compound (7), Fenpiclonil] | – | – | 90 | 22
